According to the NIST ThermoML archive (doi:10.1021/je8003595):

Legend:
[1] = 101 kPa, Liquid; for viscosity: Capillary tube (Ostwald / Ubbelohde) method
[2] = mn = molality of the nth substance listed, in mol/kg; details: 101 kPa, Liquid, m2 = 0; for viscosity: Capillary tube (Ostwald / Ubbelohde) method

CC#N [acetonitrile]
[1]
Details	mass density [kg/m3]	viscosity [mPa·s]
293.15 K	782.499	0.3081
298.15 K	777.099	0.2857
303.15 K	771.674	0.2642
308.15 K	766.217	0.2444
310.15 K	763.991	0.2374
313.15 K	760.702	0.2267

CC#N [acetonitrile] + O=C(Oc1ccccc1)c1ccccc1O
[2]
Details	mass density [kg/m3]	viscosity [mPa·s]
293.15 K	782.499	0.3081
298.15 K	777.099	0.2857
303.15 K	771.674	0.2642
308.15 K	766.217	0.2444
310.15 K	763.991	0.2374
313.15 K	760.702	0.2267
